The text below walks through data of patent US20130302442A1, “METHODS OF USING (4S,4AS,5AR,12AS)-4-DIMETHYLAMINO-3,10,12,12A-TETRAHYDROXY-7-[(METHOXY(METHYL)AMINO)-METHYL]-1,11-DIOXO-1,4,4A,5,5A,6,11,12A-OCTAHYDRO-NAPHTHACENE-2-CARBOXYLIC ACID AMIDE” (priority 2012, published 2013).

For test [1], the system named is Helicobacter pylori. Description: In vitro MIC against multiple isolates of H. pylori. The class given is cell-based. The conditions noted are these: for MIC Range: H. pylori clinical isolate summary; for MIC90: MIC for 90% of clinical test isolates.
Test [2] concerns Helicobacter pylori. The conditions noted are these: H. pylori reference strain 3718, ATCC 43504; Clinical and Laboratory Standards Institute quality control range; cited from earlier work.

Values after ≈ are worked out from the molar mass of the structure shown. Like-named read-outs stand apart in the source and are kept apart here. Some results are limits rather than exact numbers.

As to `CC1(C)S[C@@H]2[C@H](NC(=O)[C@H](N)c3ccc(O)cc3)C(=O)N2[C@H]1C(=O)O` [AMX, amoxicillin], in test [1], the “MIC Range” value lay in the range of 0.015 to 0.12 µg/mL. For the same compound, the MIC in test [1] (H. pylori clinical isolate, culture No. 4368) worked out at 0.06 µg/mL (≈ 0.164 µM); in test [1] (H. pylori clinical isolate, culture No. 4369), 0.12 µg/mL (≈ 0.328 µM); in test [1] (H. pylori clinical isolate, culture No. 4370), 0.12 µg/mL (≈ 0.328 µM); in test [1] (H. pylori clinical isolate, culture No. 4371), 0.12 µg/mL (≈ 0.328 µM); in test [1] (H. pylori clinical isolate, culture No. 4372), 0.015 µg/mL (≈ 0.041 µM); in test [1] (H. pylori clinical isolate, culture No. 4374) it was 0.015 µg/mL (≈ 0.041 µM). Further, the MIC turned out to be 0.12 µg/mL (≈ 0.328 µM) in test [1] (H. pylori clinical isolate, culture No. 4375); 0.015 µg/mL (≈ 0.041 µM) in test [1] (H. pylori clinical isolate, culture No. 4377); 0.03 µg/mL (≈ 0.0821 µM) in test [1] (H. pylori clinical isolate, culture No. 4503); 0.015 µg/mL (≈ 0.041 µM) in test [1] (H. pylori clinical isolate, culture No. 4504); 0.03 µg/mL (≈ 0.0821 µM) in test [1] (H. pylori reference strain, culture No. 3718, ATCC 43504); 0.015 µg/mL (≈ 0.041 µM) in test [1] (H. pylori reference strain, culture No. 3719, ATCC 700824). In addition, the MIC in test [1] (H. pylori reference strain, culture No. 3720, ATCC BAA-945) was determined as 0.06 µg/mL (≈ 0.164 µM). For the same compound, the MIC50 in test [1] (H. pylori, MIC for 50% of clinical test isolates) was found to be 0.03 µg/mL (≈ 0.0821 µM). The MIC90 in test [1] (H. pylori) came to 0.12 µg/mL (≈ 0.328 µM). For the same compound, in test [2], the “MIC, CLSI Quality Control Range” value was “(0.015-0.12) μg/mL”.
On to `Cc1ncc([N+](=O)[O-])n1CCO` [Metronidazole, metronidazole], for which, in test [1], the “MIC Range” value is given as “≦0.03-64 μg/mL”. For the same compound, the minimum inhibitory concentration (MIC) in test [1] (Helicobacter pylori, ATCC43504, H. pylori reference strain, culture No. 3718, ATCC 43504, read-out: MIC) was determined as 64 µg/mL (≈ 374 µM); in test [1] (Helicobacter pylori, ATCC700824, H. pylori reference strain, culture No. 3719, ATCC 700824, read-out: MIC) it was 1 µg/mL (≈ 5.84 µM); in test [1] (Helicobacter pylori, ATCCBAA945, H. pylori reference strain, culture No. 3720, ATCC BAA-945, read-out: MIC), 1 µg/mL (≈ 5.84 µM); in test [1] (Helicobacter pylori, H. pylori clinical isolate, culture No. 4368, read-out: MIC) it was 0.25 µg/mL (≈ 1.46 µM); in test [1] (Helicobacter pylori, H. pylori clinical isolate, culture No. 4369, read-out: MIC), 0.5 µg/mL (≈ 2.92 µM); in test [1] (Helicobacter pylori, H. pylori clinical isolate, culture No. 4370, read-out: MIC) it was 0.12 µg/mL (≈ 0.701 µM). Moreover, the MIC is 1 µg/mL (≈ 5.84 µM) in test [1] (Helicobacter pylori, H. pylori clinical isolate, culture No. 4371, read-out: MIC); 0.25 µg/mL (≈ 1.46 µM) in test [1] (Helicobacter pylori, H. pylori clinical isolate, culture No. 4372, read-out: MIC); 0.12 µg/mL (≈ 0.701 µM) in test [1] (Helicobacter pylori, H. pylori clinical isolate, culture No. 4374, read-out: MIC); 0.12 µg/mL (≈ 0.701 µM) in test [1] (Helicobacter pylori, H. pylori clinical isolate, culture No. 4375, read-out: MIC); 1 µg/mL (≈ 5.84 µM) in test [1] (Helicobacter pylori, H. pylori clinical isolate, culture No. 4377, read-out: MIC); no more than 0.03 µg/mL in test [1] (Helicobacter pylori, H. pylori clinical isolate, culture No. 4503, read-out: MIC). The MIC in test [1] (Helicobacter pylori, H. pylori clinical isolate, culture No. 4504, read-out: MIC) is no more than 0.03 µg/mL. The MIC90 in test [1] (Helicobacter pylori, H. pylori, read-out: MIC90) came out at 1 µg/mL (≈ 5.84 µM). Also, in test [1] (Helicobacter pylori, read-out: MIC50), the MIC50 amounted to 0.12 µg/mL (≈ 0.701 µM). For the same compound, the “MIC, CLSI Quality Control Range” value in test [2] is 64 to 256 µg/mL.
